Test results reported in patent US20150087683A1, “TREATMENT METHOD FOR STEROID RESPONSIVE DERMATOSES” (GlaxoSmithKline Intellectual Property (No.2) Limited, priority 2012, published 2015).
“And” between values parts separate entries of the source, which are not always exact repeats. Identical values can stand only once.

How the values were obtained:
MCF7 cells = assay: CMap analysis using psoriasis disease signature against mRNA expression profiles of compound-treated MCF7 cells (Assay #1); type: cell-based, human
Method: A general overview of the experimental protocol is indicated below.
The flask is incubated at 37 C for ˜2 minutes to dissociate the cells. • The dissociated cells are harvested with culture media, ˜10 ml/flask. • The harvested cell suspensions are pooled and re-suspended to ensure a homogenous suspension. • The suspension is divided into approximately 1e10̂6 cells per well. • The cells are spun down and re-suspended in fresh culture media to 1e10̂6 cells/2 mL media. • 2 ml of the adjusted cell suspension is dispensed into each well of 6-well plates. • The 6-well plates are incubated overnight at approximately 37 C: 5% CO2.
• An assay block, containing 3 ul 10 mM compound (small molecule)/well, is allowed to return to room temperature. • Culture media is warmed to 37 C. • 600 ul culture media is added to each well of assay block (containing 3 ul 10 mM compound). (=200× dilution) • Intermediate dilution is then 50 uM. • 500 ul of the intermediate dilution is transferred directly on to cells in 6-wells plated (in 2 ml) from previous day. (=5× dilution) • Cells then have 2.5 ml media on them. Final compound concentration is then 10 uM, final DMSO concentration is then 0.1%. • Treated cells are then returned to the incubator and treatment time is noted. • By way of example, if the final treatment concentration is to be something other than 10 uM, the stock should be adjusted first in DMSO so that the […] dilution still delivers 0.1% DMSO final.
• Fresh RLT buffer (QIAGEN)+2-Me is prepared. • After 6 hours of treatment, the 6-well plates are removed from incubator. • The test compound is aspirated from the cell monolayer. • 350 ul of RLT buffer is added per well. • Cells are scraped and the contents of each well is transferred to an appropriately labeled microfuge tube. • Freeze and store the samples at −80 C.
Frozen samples were shipped to Expression Analysis, Inc. Durham N.C. (EA) to generate RNA profiling data. To generate whole genome RNA expression profiles, samples were processed for RNA purification and hybridization to IllumanHT-12-V4 Expression BeadChips.
The significance of particular set of compound instance(s) of interest is estimated by permutation pvalue.

primary keratinocytes = assay: CMap analysis using psoriasis disease signature against mRNA expression profiles of compound-treated primary keratinocytes (Assay #2); type: cell-based, human; details: for Ks down / Ks up / Raw Score / Scale Score: Keratinocyte
Method: The general procedure of Assay #1 was repeated with Compound C with substitution of primary keratinocytes. Primary keratinocytes were purchased from Zen-Bio, Inc. and grown in Zen-Bio, Inc. human adult keratinocyte growth medium (cat# KM-2).
Following the general procedure of Assay #1 for Day 1, keratinocytes plated on T225 flasks were trypsinized and resuspended in 17.4 mL of KM-2 medium. The cells were then seeded in the 6-well plates with 0.5×10^6 cells per well in a total 4 mL KM-2 medium.
Following the general procedure of Assay #1 for Day 2, keratinocytes were treated with the compound at the final concentrations of 1 uM and 10 uM for 6 hours. KM-2 medium containing test compound is aspirated from the cell monolayer. 350 ul of RLT buffer is added per well, the contents in each well were scraped and transferred to an appropriately labeled microfuge tube. Samples were frozen and stored at −80 C.
The subsequent sample processing, RNA purification and hybridization to the chips for microarray experiments were conducted by Expression Analysis, Inc. Durham N.C. (EA).

plaques of psoriasis = assay: Clinical result: psoriasis plaques in a patient of cancer trial PCS113124; type: in vivo; details: human, patient 1200
Excerpt: Compound C was in human clinical trials for the treatment of cancer.

In the case of `Cn1ncc(Cl)c1-c1cc(C(=O)N[C@H](CN)Cc2ccc(F)c(F)c2)oc1Cl` [Compound C, N-{(1S)-2-amino-1-[(3,4-difluorophenyl)methyl]ethyl}-5-chloro-4-(4-chloro-1-methyl-1H-pyrazol-5-yl)-2-furancarboxamide], the “Enrichment Score” value (MCF7 cells; MCF7, 10 uM, 6 hours treatment) was −0.8835, the “Mean CMap Score” value (MCF7 cells; MCF7, 10 uM, 6 hours treatment) was −0.1867 and the “CMap Score Distribution” value (MCF7 cells; MCF7, 10 uM, 6 hours treatment, individual instance scores) was “(−0.17 −0.17 and −0.21)”. The “gene expression changes versus gene expression changes observed in psoriasis” value (MCF7 cells; MCF7 cells) was “negatively correlated”, the Ks down (primary keratinocytes; 1 uM, Day 1) was 0.112 and the Ks up (primary keratinocytes; 1 uM, Day 1) was −0.22. For the same compound, the “Raw Score” value (primary keratinocytes; 1 uM, Day 1) was −0.3324, the “Scale Score” value (primary keratinocytes; 1 uM, Day 1) was −0.6723 and the Ks down (primary keratinocytes; 1 uM, Day 2) was 0.172. The Ks up (primary keratinocytes; 1 uM, Day 2) was −0.248, the “Raw Score” value (primary keratinocytes; 1 uM, Day 2) was −0.4204 and the “Scale Score” value (primary keratinocytes; 1 uM, Day 2) was −0.8504. For the same compound, the Ks down (primary keratinocytes; 1 uM, Day 3) was 0.124, the Ks up (primary keratinocytes; 1 uM, Day 3) was −0.139 and the “Raw Score” value (primary keratinocytes; 1 uM, Day 3) was −0.2625. For the same compound, the “Scale Score” value (primary keratinocytes; 1 uM, Day 3) was −0.5309, the Ks down (primary keratinocytes; 10 uM, Day 1) was 0.112 and the Ks up (primary keratinocytes; 10 uM, Day 1) was −0.213. For the same compound, the “Raw Score” value (primary keratinocytes; 10 uM, Day 1) was −0.3251, the “Scale Score” value (primary keratinocytes; 10 uM, Day 1) was −0.6576 and the Ks down (primary keratinocytes; 10 uM, Day 2) was 0.115. For the same compound, the Ks up (primary keratinocytes; 10 uM, Day 2) was −0.296, the “Raw Score” value (primary keratinocytes; 10 uM, Day 2) was −0.4104 and the “Scale Score” value (primary keratinocytes; 10 uM, Day 2) was −0.8302. The Ks down (primary keratinocytes; 10 uM, Day 3) was 0.114, the Ks up (primary keratinocytes; 10 uM, Day 3) was −0.241 and the “Raw Score” value (primary keratinocytes; 10 uM, Day 3) was −0.3551. For the same compound, the “Scale Score” value (primary keratinocytes; 10 uM, Day 3) was −0.7182, the “gene expression changes versus gene expression changes observed in psoriasis” value (primary keratinocytes; primary keratinocytes) was “negatively correlated” and the “course of mild plaques of psoriasis during treatment” value (plaques of psoriasis) was “generally got better and even disappeared at times”.
